Experimental findings from the supplement of paper PMC12317010 are described below.

A short description of this series: collision cross section in nitrogen (drift tube, single-field); higher = larger gas-phase ion size.
Where [1] appears, read: ion type: [M+], ion source: APCI, ion mode: Positive.
The mark [2] stands for this setting: ion type: [M-H], ion source: ESI, ion mode: Negative.
Where [3] appears, read: ion type: [M+Na], ion source: ESI, ion mode: Positive.
Where [4] appears, read: ion type: [M+H], ion source: APCI, ion mode: Positive.
Where [5] appears, read: ion type: [M+H], ion source: ESI, ion mode: Positive.

Structures can show the parent of a compound that is named as a salt.
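Further: chemical standards at 10 µM analysed by drift tube IMS-QTOF MS in about 3.95 torr nitrogen, mean of duplicate injections differing ≤1%, mass error below 10 ppm.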

With `Nc1cc(Cl)c(-c2cc(Cl)c(N)cc2Cl)cc1Cl` [2,2',5,5'-Tetrachlorobenzidine], the “collision cross section in nitrogen” value reads like this: under setting [1], 164.9 Å²; under setting [2], 167.6 Å².

Regarding `CC(C)(c1cc(Cl)c(O)c(Cl)c1)c1cc(Cl)c(O)c(Cl)c1` [2,2',6,6'-Tetrachlorobisphenol A], the “collision cross section in nitrogen” value under setting [2] was determined as 184.3 Å².

Turning to `CCC(CO)(CO)COCC(CC)(CO)CO` [2,2'-(Oxydimethanediyl)bis(2-ethylpropane-1,3-diol)], the “collision cross section in nitrogen” value reads like this: under setting [3], 159.6 Å²; under setting [2], 158.6 Å².

For the compound `CCCCCCCCCCCCCCN(CCO)CCO` [2,2'-(Tetradecylimino)diethanol], the “collision cross section in nitrogen” value under setting [4] worked out at 193 Å², the “collision cross section in nitrogen” value under setting [5] was determined as 193.2 Å² and the “collision cross section in nitrogen” value under setting [3] is listed as 187.4 Å².

`c1ccc(-c2ccccn2)nc1` [2,2'-Bipyridine]: the “collision cross section in nitrogen” value runs as follows: under setting [4], 126.4 Å²; under setting [5], 127 Å².

Consider `O=C(Nc1ccccc1SSc1ccccc1NC(=O)c1ccccc1)c1ccccc1` [2,2'-Dibenzoylaminodiphenyl disulfide], for which the “collision cross section in nitrogen” value is listed as 194.6 Å² under setting [4], 194 Å² under setting [5], 203 Å² under setting [3] and 206 Å² under setting [2].

Turning to `Cc1cc(Cc2cc(C)cc(C(C)(C)C)c2O)c(O)c(C(C)(C)C)c1` [2,2'-Methylenebis(4-methyl-6-tert-butylphenol)], under setting [2], the “collision cross section in nitrogen” value amounted to 195.4 Å².

For the compound `CCc1cc(Cc2cc(CC)cc(C(C)(C)C)c2O)c(O)c(C(C)(C)C)c1` [2,2'-Methylenebis(ethyl-6-tert-butylphenol)], the “collision cross section in nitrogen” value under setting [2] amounted to 203.6 Å².

As to `NCCCN(CCO)CCO` [2,2'-[(3-Aminopropyl)imino]diethanol], the “collision cross section in nitrogen” value by setting is: under setting [4], 132.7 Å²; under setting [5], 133.5 Å²; under setting [3], 135.8 Å².

On to `Cc1ccc(N(CCO)CCO)cc1` [2,2'-[(4-Methylphenyl)imino]diethanol], for which the “collision cross section in nitrogen” value runs as follows: under setting [4], 141.8 Å²; under setting [5], 143.4 Å²; under setting [3], 151 Å².

For the compound `NCCOCCOCCN` [2,2'-[Ethane-1,2-diylbis(oxy)]diethanamine], the “collision cross section in nitrogen” value under setting [3] is listed as 132.4 Å².

For `CC(C)C(OC(=O)c1ccccc1)C(C)(C)COC(=O)c1ccccc1` (stereo not drawn) [2,2,4-Trimethylpentane-1,3-diyl dibenzoate], the “collision cross section in nitrogen” value under setting [3] came to 194.6 Å².

Turning to `CC1(C)CC(N)CC(C)(C)N1` [2,2,6,6-Tetramethylpiperidin-4-amine], the “collision cross section in nitrogen” value under setting [4] is recorded as 133.5 Å² and the “collision cross section in nitrogen” value under setting [5] was 135.1 Å².

`C=CCOCC(CC)(CO)COCC=C` [2,2-Bis[(prop-2-en-1-yloxy)methyl]butan-1-ol]: under setting [3], the “collision cross section in nitrogen” value turned out to be 150 Å².

`COC(OC)(C(=O)c1ccccc1)c1ccccc1` [2,2-Dimethoxy-1,2-diphenylethanone]: the “collision cross section in nitrogen” value under setting [3] is 170.6 Å².

On to `CC1(C)Cc2cccc(N)c2O1` [2,2-Dimethyl-2,3-dihydro-1-benzofuran-7-amine], for which the “collision cross section in nitrogen” value is given as 135.8 Å² under setting [4] and 135 Å² under setting [5].

For `COc1ccc(C(=O)c2ccccc2O)c(O)c1` [2,2′-Dihydroxy-4-methoxybenzophenone], the “collision cross section in nitrogen” value under setting [2] came to 153.6 Å².

Consider `Oc1ccccc1Cc1ccccc1O` [2,2′-Methylenebis[phenol]], for which, under setting [2], the “collision cross section in nitrogen” value stood at 142.9 Å².

For the compound `Oc1c(Cl)cc(Cl)c(Cl)c1Cl` [2,3,4,6-Tetrachlorophenol], the “collision cross section in nitrogen” value under setting [2] is recorded as 133.8 Å².

With `O=C(c1ccccc1)c1ccc(O)c(O)c1O` [2,3,4-Trihydroxbenzophenone], under setting [2], the “collision cross section in nitrogen” value was 151.1 Å².

As to `O=C(O)c1c(Cl)ccc(Cl)c1Cl` [2,3,6-Trichlorobenzoic acid], the “collision cross section in nitrogen” value under setting [2] is reported as 143.9 Å².

Turning to `Oc1c(Cl)ccc(Cl)c1Cl` [2,3,6-Trichlorophenol], the “collision cross section in nitrogen” value under setting [2] was 128.9 Å².

Take `Cc1ccc(C)c(O)c1C` [2,3,6-Trimethylphenol]: the “collision cross section in nitrogen” value under setting [2] is 130.9 Å².

For `Nc1cccnc1N` [2,3-Diaminopyridine], the “collision cross section in nitrogen” value under setting [5] is given as 118.5 Å².

For the compound `CC1=CP(=O)(c2ccccc2)CC1` (stereo not drawn) [2,3-Dihydro-4-methyl-1-phenyl-1H-phosphole 1-oxide], the “collision cross section in nitrogen” value by setting is: under setting [4], 141.7 Å²; under setting [5], 141.3 Å²; under setting [3], 160.6 Å²; under setting [1], 138 Å².

For the compound `Cc1cccc(O)c1C` [2,3-Dimethylphenol], the “collision cross section in nitrogen” value under setting [2] was determined as 126.6 Å².

For the compound `O=C(c1ccc(O)cc1)c1ccc(O)cc1O` [2,4,4'-Trihydroxybenzophenone], under setting [2], the “collision cross section in nitrogen” value was determined as 152.8 Å².

As for `CCCCOCCOC(=O)COc1cc(Cl)c(Cl)cc1Cl` [2,4,5-T-butotyl], the “collision cross section in nitrogen” value under setting [3] was found to be 184.2 Å².

Take `O=S(=O)(O)c1cc(Cl)c(Cl)cc1Cl` [2,4,5-Trichlorobenzenesulfonic acid]: the “collision cross section in nitrogen” value under setting [2] is listed as 142.8 Å².

Turning to `Oc1cc(Cl)c(Cl)cc1Cl` [2,4,5-Trichlorophenol sodium salt], the “collision cross section in nitrogen” value under setting [2] worked out at 128.6 Å².

Regarding `Oc1cc(Cl)c(Cl)cc1Cl` [2,4,5-Trichlorophenol], the “collision cross section in nitrogen” value under setting [2] was found to be 128.7 Å².

As for `Oc1c(Br)cc(Br)cc1Br` [2,4,6-Tribromophenol], under setting [2], the “collision cross section in nitrogen” value was 135.2 Å².

For the compound `Oc1c(I)cc(I)cc1I` [2,4,6-Triiodophenol], the “collision cross section in nitrogen” value was 139.5 Å² under setting [1] and 143.5 Å² under setting [2].

With `Cc1cc(C)c(C(=O)O)c(C)c1` [2,4,6-Trimethylbenzoic acid], under setting [2], the “collision cross section in nitrogen” value was determined as 140.5 Å².

As to `CC(C)(C)c1cc(C(C)(C)C)c(O)c(C(C)(C)C)c1` [2,4,6-Tris(tert-butyl)phenol], under setting [2], the “collision cross section in nitrogen” value was found to be 173.2 Å².

Turning to `CC(C)(c1ccccc1)c1ccc(O)c(C(C)(C)c2ccccc2)c1` [2,4-Bis(1-methyl-1-phenylethyl)phenol], the “collision cross section in nitrogen” value runs as follows: under setting [5], 171.9 Å²; under setting [2], 187.8 Å².

With `CC(C)Nc1nc(Cl)nc(NC(C)C)n1` [2,4-Bis(isopropylamino)-6-chloro-1,3,5-triazine], the “collision cross section in nitrogen” value runs as follows: under setting [4], 154.9 Å²; under setting [5], 155.3 Å².

As to `CCCCOCCOC(=O)COc1ccc(Cl)cc1Cl` [2,4-D-Butotyl], under setting [3], the “collision cross section in nitrogen” value was 177 Å².

As to `CC(C)COC(=O)COc1ccc(Cl)cc1Cl` [2,4-D-isobutyl], the “collision cross section in nitrogen” value under setting [3] is 172.2 Å².

On to `CC(C)(C)c1ccc(O)c(C(C)(C)C)c1` [2,4-Di-tert-butylphenol], for which, under setting [2], the “collision cross section in nitrogen” value stood at 155.1 Å².

Consider `Nc1ccc(S(=O)(=O)O)c(N)c1` [2,4-Diaminobenzenesulfonic acid], for which the “collision cross section in nitrogen” value under setting [2] was 137.9 Å².

On to `Cc1ccc(N)cc1N` [2,4-Diaminotoluene], for which the “collision cross section in nitrogen” value under setting [5] was 122.3 Å².

Regarding `Cc1cc(O)c(Cl)c(C)c1Cl` [2,4-Dichloro-3,5-dimethylphenol], under setting [2], the “collision cross section in nitrogen” value was 135.4 Å².

For the compound `Nc1c(Cl)cc(Cl)cc1[N+](=O)[O-]` [2,4-Dichloro-6-nitroaniline], the “collision cross section in nitrogen” value under setting [2] amounted to 131.4 Å².

For `O=C(Nc1ccc2ccccc2c1)c1ccc(Cl)cc1Cl` [2,4-Dichloro-N-(naphthalene-2-yl)benzamide], the “collision cross section in nitrogen” value stood at 171.9 Å² under setting [5] and 184.5 Å² under setting [3].

Regarding `Oc1ccc(Cl)cc1Cl` [2,4-Dichlorophenol], under setting [2], the “collision cross section in nitrogen” value came to 123.6 Å².

For `O=C(c1ccccc1)c1ccc(O)cc1O` [2,4-Dihydroxybenzophenone], under setting [2], the “collision cross section in nitrogen” value came to 148.3 Å².

Take `Oc1ccnc(O)c1` [2,4-Dihydroxypyridine]: the “collision cross section in nitrogen” value was found to be 119.5 Å² under setting [4], 120.2 Å² under setting [5] and 118.5 Å² under setting [2].

With `CC(C)c1ccc(O)c(C(C)C)c1` [2,4-Diisopropylphenol], the “collision cross section in nitrogen” value under setting [2] worked out at 146.7 Å².

As for `Cc1ccc(S(=O)(=O)O)c(C)c1` [2,4-Dimethylbenzenesulfonic acid], the “collision cross section in nitrogen” value under setting [2] is listed as 138.3 Å².

Regarding `O=[N+]([O-])c1ccc(O)c([N+](=O)[O-])c1` [2,4-Dinitrophenol], the “collision cross section in nitrogen” value under setting [2] amounted to 127.8 Å².

`O=c1[nH]cc(S(=O)(=O)Cl)c(=O)[nH]1` [2,4-Dioxo-1,2,3,4-tetrahydropyrimidine-5-sulfonyl chloride]: under setting [5], the “collision cross section in nitrogen” value turned out to be 140.8 Å².

`COCCOCCOCCOCCOC` [2,5,8,11,14-Pentaoxapentadecane]: the “collision cross section in nitrogen” value under setting [3] was 147.3 Å².

`CC(C)(C)c1cc(O)c(C(C)(C)C)cc1O` [2,5-Di-tert-butylbenzene-1,4-diol]: the “collision cross section in nitrogen” value under setting [1] was 155.1 Å².

With `Oc1cc(Cl)ccc1Cl` [2,5-Dichlorophenol], the “collision cross section in nitrogen” value under setting [2] is 123.3 Å².

Consider `COc1cc(Cl)c(OC)cc1N` [2,5-Dimethoxy-4-chloroaniline], for which the “collision cross section in nitrogen” value reads like this: under setting [5], 145 Å²; under setting [1], 133 Å².

For `Cc1ccc(C)c(S(=O)(=O)O)c1` [2,5-Dimethylbenzenesulfonic acid monohydrate], the “collision cross section in nitrogen” value under setting [2] is reported as 138.2 Å².

Turning to `Cc1ccc(C)c(S(=O)(=O)O)c1` [2,5-Dimethylbenzenesulfonic acid], the “collision cross section in nitrogen” value under setting [2] amounted to 138.2 Å².

Turning to `CCC(C)c1cccc(C(C)CC)c1O` (stereo not drawn) [2,6-Di(butan-2-yl)phenol], the “collision cross section in nitrogen” value under setting [2] turned out to be 151.4 Å².
